Each block holds one molecule with its values, some of them ahead of it.
How the values were obtained:
[1] = clinical; assay type: in vivo, human; settings: human, in vivo
Procedure: (§1) • Protocol AMX3500: sparse sampling in 87 subjects with ALS. Approximately 2 samples are collected for each subject, 1 or 4 hours post dose following 12 and 24 weeks of treatment. • Protocol A35-002: rich sampling in 14 healthy adults. Approximately 21 samples are collected over 24 hours for each subject on two occasions, once following a high fat meal and the other under fasting conditions.
A total of 14 healthy subjects were enrolled in order to have no fewer than 12 subjects complete. A predefined mix of gender was selected.
Each study period followed the same study design (FIG. 1). Subjects were screened for inclusion in the study up to 28 days before dosing. Subjects were admitted to the clinical unit during Study Day −2 for Period 1 and Day −1 for Period 2 and were dosed in the morning of Day 1. On the night prior to Period 1 the subjects in the fasted/fed or fed/fasted sequence were fasted for a minimum of 10 h prior to dosing.
The solution was stirred until the powder was mostly dissolved.
Any departures from the intended regimen were recorded in the eCRFs. All dose administrations were performed in the study center under the supervision of appropriately trained staff.
Subjects were provided with a light snack and were then fasted from all food and drink (except water) until the following morning, when they were provided with a high-fat breakfast. The breakfast was consumed over a maximum period of 25 min, and dosing occurred 30 min after the start of breakfast. Subjects were encouraged to eat their meal evenly over the 25 min period. For this trial the subject was deemed compliant if they consumed >80% of the high-fat standard breakfast.
The subjects in the 24-h baseline and in the fasted condition Period remained fasted up to 4 h post-dose and were offered a standardized meal to be taken between 4.00 and 5.00 h post-dose. Subjects in the fed condition were fasted overnight and received a high-fat standard breakfast 30 minutes pre-dose and then remained fasted for 4.00 to 5.00 h post-dose when they received a standardized meal.
Venous blood samples were withdrawn via an indwelling cannula or by venipuncture according to the time schedule presented in Table 5 Table, Table 6, and Table 7.
Blood samples of approximately 4 mL were collected into 4 mL BD Vacutainer Plastic K2EDTA Tubes with Lavender Hemogard Closure, and was gently inverted approximately 8 times. The tubes were then immediately stored on ice and processed within 60 min of collection by centrifugation at 1500 g for 10 min at 2 to 8° C. The resultant plasma was separated equally into 2 aliquots and transferred to 2 mL appropriately labelled primary and backup polypropylene cryovials.
Actual elapsed time from dosing was to be used for the final plasma PK parameter calculations after database lock.

[2] = Population pharmacokinetic model and simulations of PB and PAA (healthy subjects and ALS patients); parameters: species or system human; settings: for Cmax, Mean: from individual Bayesian (post hoc) parameter estimates; for Cmax, 2.5th percentile / Cmax, 97.5th percentile / Cmax, Geometric mean / Cmax, Median: post hoc Bayesian estimates; for CL/F, apparent (oral) metabolic clearance of phenylbutyrate to phenylacetate / Ka, PB oral absorption rate constant under fasting conditions / Ka, oral absorption rate constant when phenylbutyrate is administered with food / V/F, apparent volume of distribution of phenylbutyrate: population PK
Text: The order of administration with and without food was randomly assigned. […] Subjects were advised to take the drug before a meal. […] No inter-occasion variability (IOV) was included.

[3] = clinical; assay type: in vivo, human; settings: human, in vivo; for concentration at 1 h / concentration at 4 h: both sexes
Procedure: • 1. […] Treatment is administered as one sachet daily for the initial 3 weeks and then increased if tolerated to one sachet twice daily. […] Sampling times are randomly assigned to occur at either 1 or 4 hours post-dose at the 12 week visit and the other time at the 24 week visit. • Treatment duration: 24 weeks • 2.
as §1
Subjects were advised to take the drug before a meal. […] Referred to as protocol 3500.
A study was carried out to examine plasma concentration data in various subgroups for the protocol AMX3500 Phase 2 study. This example summarizes plasma concentrations of TUDCA and 2 metabolites, also related acids, UDCA, the de-conjugated TUDCA metabolite, and GUDCA, the glycine conjugate of UDCA.
For each of the 2 treatment arms (treatment and placebo), subjects were further divided into 2 sample sequence groups for schedule of pharmacokinetic measurements: • 1. 1 hour post-dose for the Week 12 visit and 4 hours post-dose for the Week 24 visit • 2. 4 hours post-dose for the Week 12 visit and 1 hour post-dose for the Week 24 visit
Twenty-four distinct medication descriptions were identified as containing antibiotics. Dates of antibiotic use were compared to dates of visits and if the antibiotic use date range contained the visit date, then that visit was flagged for that subject's data for antibiotic use. […] These antibiotics could hypothetically be in a subject's body still if this event occurred. However, it was observed that only a small number of subjects took antibiotics near to visit dates but not overlapping visit dates. In other cases, subjects were taking antibiotics on the date of one visit but not the others. Some subjects are therefore in both categories of antibiotic use and nonuse, though no individual visits for a subject are counted in both categories at the same time.
Subjects whose race were recorded as “Black” or “African American” were evaluated according to the standard Glomerular Filtration Rate (eGFR) rating for that race. The other standard eGFR rating used, sometimes referred to as a standard for people who are White, was applied to subjects of all other races. These rates were analyzed as continuous in mL/min/1.73 m2 units and as the following categories: • 1. Less than 90 mL/min/1.73 m^2 • 2. Equal to or greater than 90 mL/min/1.73 m^2
Age was converted from a continuous variable to 2 categories: • 1. As old or older than 65 years old • 2. Younger than 65 years old
All boxplots boxes are bounded at the 25th and 75th percentile, with whiskers at 10th and 90th percentiles, outliers beyond that as points, the black line as median, and red line as mean.

[4] = within 24 hours; cited from earlier work
[5] = Plasma protein binding in vitro; assay type: in vitro ADME; settings: plasma, co-administered in vitro
[6] = test system: human hepatocytes; test: Metabolites in hepatocytes in vitro; assay type: in vitro ADME
[7] = test system: Plasma protein; test: Plasma protein binding in vitro; assay type: in vitro ADME; settings: co-administered in vitro
[8] = both sexes, elimination half-lives (range)
[9] = Steady-state plasma concentration

half-life ([1]; both sexes, T1/2): 0.46 h
Tmax ([1]; both sexes, Tmax): 0.5 h
Tmax ([1]; both sexes, Tmax Median): 0.5 h
half-life [1, 8]: 0.4 to 0.71 h
Cmax ([1]; both sexes, mean Cmax): 188000 ng/mL
Cmax ([1]; both sexes, po, Cmax): 188000 ng/mL
AUC(0-inf) Adj Geo Mean ([1]; both): 261000 ng·h/mL
AUC(0-last), Adj Geo Mean ([1]; both): 241000 ng·h/mL
Cmax, Adj Geo Mean ([1]; both): 191000 ng/mL
Tmax ([1]; both): 0.25 h
concentrations remained quantifiable until ([1]; both): 3.00 to 5.00 h
decrease in AUC with high-fat, high-calorie meal ([1]; both): 55%
time at which plasma concentrations typically peaked ([1]; both): 0.5 to 1 h
time by which eliminated from systemic circulation ([1]; both): ≤ 6 h
time by which plasma concentrations fell below LLOQ ([1]; both): 4 to 5 h
time from which plasma concentrations were evident ([1]; both): 0.25 h
time of maximum plasma concentrations (range) ([1]; both): 0.25 to 0.50 h
median time to Cmax [1]: 1 h
effect of age on pharmacokinetics ([2]; ALS patients aged 65-76 versus less than 65 years, model-based analysis): no significant difference
Cmax, Mean ([2]; ALS patients, Fasting): 131000 ng/mL
Cmax, 2.5th percentile ([2]; ALS patients, Fasting): 10300 ng/mL
Cmax, 97.5th percentile ([2]; ALS patients, Fasting): 414000 ng/mL
Cmax, Geometric mean ([2]; ALS patients, Fasting): 90900 ng/mL
Cmax, Median ([2]; ALS patients, Fasting): 97900 ng/mL
Cmax, Mean ([2]; ALS patients, Fed): 48400 ng/mL
Cmax, 2.5th percentile ([2]; ALS patients, Fed): 8740 ng/mL
Cmax, 97.5th percentile ([2]; ALS patients, Fed): 112000 ng/mL
Cmax, Geometric mean ([2]; ALS patients, Fed): 39400 ng/mL
Cmax, Median ([2]; ALS patients, Fed): 43900 ng/mL
estimated steady-state mean Cmax ([2]; ALS patients, based on population PK): 131000 ng/mL
terminal elimination half-life ([2]; based on typical values for CLPB/F and VPB/F): 0.45 h
effect of mild renal insufficiency on pharmacokinetics ([2]; eGFR greater than 60 mL/min, model-based analysis): no significant correlation
decrease in Ka, fed versus fasting ([2]; final model projection): 60%
CL/F, apparent (oral) metabolic clearance of phenylbutyrate to phenylacetate ([2]; Bootstrap Median): 14.7 L/h
Ka, PB oral absorption rate constant under fasting conditions ([2]; Bootstrap Median): 1.96
Ka, oral absorption rate constant when phenylbutyrate is administered with food ([2]; Bootstrap Median): 0.779
V/F, apparent volume of distribution of phenylbutyrate ([2]; Bootstrap Median): 9.7 L
CL/F, apparent (oral) metabolic clearance of phenylbutyrate to phenylacetate ([2]; Final Model mean estimate): 14.8 L/h
Ka, PB oral absorption rate constant under fasting conditions ([2]; Final Model mean estimate): 1.92
Ka, oral absorption rate constant when phenylbutyrate is administered with food ([2]; Final Model mean estimate): 0.767
V/F, apparent volume of distribution of phenylbutyrate ([2]; Final Model mean estimate): 9.6 L
accumulation in plasma after once- or twice-daily dosing [3]: no accumulation
fraction unbound [5]: 0.18
SMILES: O=C(O)CCCc1ccccc1 [PB, sodium phenylbutyrate]
relationship between exposure and body weight ([2]; population PK analysis): not appreciably affected by body weight
fraction excreted in the urine as phenylacetylglutamine [4]: 80-100%

AUC(0-inf) ([1]; both sexes, AUC(0-inf)): 3910 ng·h/mL
AUC(0-t) ([1]; both sexes, AUC(0-last)): 4360 ng·h/mL
Cmax ([1]; both sexes, Cmax): 741 ng/mL
half-life ([1]; both sexes, T1/2): 4.34 h
Tmax ([1]; both sexes, Tmax): 4.5 h
Tmax ([1]; both sexes, Tmax Median): 4.5 h
Vd/F ([1]; both sexes, Vz/F): 1600 L
half-life [1, 8]: 2.51 to 8.71 h
Cmax ([1]; both sexes, mean Cmax): 871 ng/mL
Cmax ([1]; both sexes, po, Cmax): 741 ng/mL
Tmax ([1]; both sexes, po, Tmax, Median): 4.5 h
AUG(0-last) ([1]; both): 4360 (79.4) ng.h/ml
Tmax ([1]; both): 10.00 h
increase in exposure (AUC) with high-fat, high-calorie meal ([1]; both): 46%
time of maximum plasma concentrations (range) ([1]; both): 1.50 to 10.00 h
AUC(0-last), Adj Geo Mean ([1]; both, po): 4460 ng·h/mL
Cmax, Adj Geo Mean ([1]; both, po): 755 ng/mL
median time to Cmax [1]: 4.5 h
concentration at 1 h ([3]; Plasma Concentration, Mean): 503 ng/mL
concentration at 4 h ([3]; Plasma Concentration, Mean): 636 ng/mL
concentration at 1 h ([3]; Plasma Concentration, Median): 248 ng/mL
concentration at 4 h ([3]; Plasma Concentration, Median): 446 ng/mL
concentration at 1 h [3, 9]: 448 ng/mL
concentration at 4 h [3, 9]: 566 ng/mL
Plasma Concentration, Median ([3]; both): 20.0 ng/mL
Plasma Concentration, Min ([3]; both): 20.0 ng/mL
steady state reached by ([3]; both): ≤ 12 Week
Plasma Concentration, Min ([3]; both, 1 h): 20.0 ng/mL
Plasma Concentration, Min ([3]; both, 4 h): 20.0 ng/mL
accumulation in plasma after once- or twice-daily dosing [3]: little accumulation
effect of age on steady-state plasma concentration [3]: no difference
effect of mild renal insufficiency on steady-state plasma concentration [3]: no discernible difference
Plasma protein binding [7]: ~99%
fraction unbound [5]: 0.02
SMILES: C[C@H](CCC(=O)NCCS(=O)(=O)O)[C@H]1CC[C@H]2[C@@H]3[C@@H](O)C[C@@H]4C[C@H](O)CC[C@]4(C)[C@H]3CC[C@]12C [TURSO, taurursodiol]
metabolites detected in human hepatocytes versus rat and minipig hepatocytes [6]: also detected in rat and minipig hepatocytes
steady-state plasma concentrations versus endogenous levels [3]: at least an order of magnitude higher than endogenous levels

— patent publication US20230372263A1, “METHODS AND COMPOSITIONS FOR TREATING AMYOTROPHIC LATERAL SCLEROSIS” (Amylyx Pharmaceuticals, Inc., priority 2022, published 2023)
